{
  "source": "paper PMC3045100",
  "about": "“Cell-Penetrating Penta-Peptides (CPP5s): Measurement of Cell Entry and Protein-Transduction Activity” (Pharmaceuticals, 2010)",
  "system": "DAMI cells",
  "experiment": "Cell-penetration activity of Fam-labeled CPP5s, cellular fluorescence by FACS and/or microscopy",
  "format": "cell-based, human",
  "details": "peptides Fam-labeled on the N-terminus, 200 μM, 3 h, 37 °C, fluorescence intensity of cells by FACS, mean of triplicate samples",
  "method": "Figure 1 Cell-penetration activity of CPP5s. a. List of cell-penetrating penta-peptides (CPP5s). […] Peptide sequences are color-coded to show the constant amphipathic amino acid arrangement in each CPP5. Cell-penetration activity was determined by fluorescence intensity of cells (DAMI cells: a human megakaryocytic cancer cell line) incubated with fluorescein (Fam)-labeled peptides (200 μM) for 3 h at 37 °C as described in Experimental Procedures. Fam was labeled on the N-terminus of all peptides examined. Cells were analyzed by FACS and/or microscopy. The activity of each peptide is shown as a percentage of the activity of KLPVM. Each value represents the mean of triplicate samples. Cell entry of some peptides was confirmed by microscopy only, and these peptides are indicated with a ‘+’ without a percentage value. For cytoprotective activity (right column), the information is based on previous studies and the activity was determined by the protection of cells from Bax overexpression and other apoptotic stimuli such as etoposide treatment. b to e. Cell entry of Fam-labeled VPTLK, KLPVM, TAT, and poly-arginine (R8). HeLa cells were incubated with Fam-labeled VPTLK, KLPVM (200 μM), Fam-TAT (10 μM), and Fam-R8 (10 μM) for 1 h at 37 °C. Images are at 20× magnification. f. Comparison of the cytotoxicity of CPP5 and TAT. Primary cultured mouse embryonic fibroblast (MEF) cells were treated with various concentrations of peptides for 24 h as indicated. Then, apoptosis was analyzed as described in Experimental Procedures. Each bar represents the mean of triplicate samples and standard error. TEXT PRINTED IN THE PICTURE: (a) VPMLK: Cell Penetration (%): 97 ± 4.3; Cytoprotection: + | (a) VPTLK: Cell Penetration (%): 61 ± 1.7; Cytoprotection: + | (a) VPALR: Cell Penetration (%): 79 ± 1.5; Cytoprotection: + | (a) VSALK: Cell Penetration (%): 90 ± 3; Cytoprotection: N.D. | (a) PMLKE: Cell Penetration (%): 65 ± 3.7; Cytoprotection: + | (a) VPALK: Cell Penetration (%): 71 ± 2.2; Cytoprotection: + | (a) VSLKK: Cell Penetration (%): +; Cytoprotection: - | (a) VSGKK: Cell Penetration (%): +; Cytoprotection: - | (a) KLPVM: Cell Penetration (%): 100 ± 2.3; Cytoprotection: - | (a) IPMIK: Cell Penetration (%): 47 ± 1.4; Cytoprotection: - | (a) KLGVM: Cell Penetration (%): +; Cytoprotection: - | (a) KLPVT: Cell Penetration (%): +; Cytoprotection: - | (a) VPMIK: Cell Penetration (%): +; Cytoprotection: N.D. | (a) IPALK: Cell Penetration (%): +; Cytoprotection: N.D. | (a) IPMLK: Cell Penetration (%): +; Cytoprotection: N.D. | (a) VPTLQ: Cell Penetration (%): 70 ± 4; Cytoprotection: - | (a) QLPVM: Cell Penetration (%): +; Cytoprotection: - | (a) ELPVM: Cell Penetration (%): +; Cytoprotection: - | (a) VPTLE: Cell Penetration (%): 80 ± 1.9; Cytoprotection: N.D.\nCPP5s that were designed based on the Bax-binding domain of Ku70 of several species are named Bax-Inhibiting Peptides (BIPs); they are VPMLK, PMLKE, VPTLK, VPALR, and VPALK. VPMLK and PMLKE were designed from human Ku70, and the same sequence exists in the Ku70 homologues of dog and monkey. VPTLK and VPALR are based on mouse and rat Ku70, respectively. VPALK was designed from cattle Ku70, and the same sequence exists in Ku70 of the African clawed frog. Cytoprotective activities of these BIPs have been previously reported, both in cell culture and animal models. […] The observed variation in cell-entering activity of Fam-labeled-CPP5s is shown in Figure 1a as a percentage of the activity of KLPVM. In all cases, Fam was attached to the N-terminal amino acid. For some CPP5s, cell-penetration activity was confirmed by detection of an intracellular fluorescent signal by microscopy. These latter results are indicated with ‘+’ symbols, and a quantitative comparison with the activity of KLPVM was not performed. […]",
  "data": [
    {"substance": "VPTLK", "values": [
      {"measurement": "Cell Penetration (%), percentage of the activity of KLPVM", "value": "61 ± 1.7", "unit": "%"}
    ]}
  ]
}
